According to publication PMC11394002, “5-Aminothiazoles Reveal a New Ligand-Binding Site on Prolyl Oligopeptidase Which is Important for Modulation of Its Protein–Protein Interaction-Derived Functions” (Journal of Medicinal Chemistry, 2024):
Like-named read-outs stand apart in the source and are kept apart here.

Assays:
[1] = test system: HEK-293 cells stably expressing GFP-LC3B; test: Autophagic flux assay (GFP signal); format: cell-based, human
[2] = test system: αSyn dimerization in Neuro2A cells; test: α-Synuclein dimerization assay (split Gaussia luciferase PCA); format: cell-based, mouse
[3] = test system: HEK-293 cells stably expressing GFP-LC3B; conditions: GFP signal percentage of DMSO control with SEM, ref 16 or 19; cited from earlier work
[4] = test system: αSyn dimerization in Neuro2A cells; conditions: luminescence signal percentage of DMSO control with SEM, cited from earlier work

## CC(C)c1nc(CCc2c[nH]c3ccccc23)sc1N1CCCC1 [Compound 16k, 2-(2-(1H-Indol-3-yl)ethyl)-4-isopropyl-5-(pyrrolidin-1-yl)thiazole]
[1]; 10 μM, SAR discussion
  effect on autophagy (in words): loss of activity
[2]; 10 μM, SAR discussion
  effect on αSyn dimerization (in words): loss of activity

## C[C@H](NC(=O)CCCc1ccccc1)C(=O)N1CCC[C@H]1c1nnn[nH]1 [HUP-28]
[3]
  autophagy at 10 μM: 71 ± 6%
[4]; ref 16 or 19
  αSyn dimerization at 10 μM: 75 ± 5%

## Cc1nc(CCCc2ccccc2)sc1N1CCC[C@H]1C#N [HUP-46, (S)-1-(4-Methyl-2-(3-phenylpropyl)thiazol-5-yl)pyrrolidine-2-carbonitrile]
[1]
  autophagic flux, concentration–response: concentration-dependent up to 20 μM
[2]
  concentration of maximal efficacy in the αSyn dimerization assay: 10 µM

## Cc1nc(CCCc2ccccc2)oc1N1CCC[C@H]1C#N [HUP-55]
[4]
  αSyn dimerization at 10 μM: 85 ± 2%

## CO[C@H]1C[C@@H]2CC[C@@H](C)[C@@](O)(O2)C(=O)C(=O)N2CCCC[C@H]2C(=O)O[C@H]([C@H](C)C[C@@H]2CC[C@@H](O)[C@H](OC)C2)CC(=O)[C@H](C)/C=C(\C)[C@@H](O)[C@@H](OC)C(=O)[C@H](C)C[C@H](C)/C=C/C=C/C=C/1C [Rapamycin]
[1]; rapamycin positive control (0.5 μM), maximum effect in this assay
  GFP signal of the baseline: about 65%
